Reference: patent US4792632A, “Bisacylphosphine oxides, the preparation and use thereof” (ESPE Fabrik Pharmazeutischer Praparate GmbH, priority 1984, dated 1988)

Columns and labels:
[1] = Attained thickness of cured layer of resin solution (curing depth) after storage, dental radiator 20 s; conditions: for Layer Thickness after 1 month / Layer Thickness after 24 hrs: 0.5% by weight photoinitiator in solution I, 20 s exposure; for Layer Thickness after 1 month: stored 1 month in absence of light; for Layer Thickness after 24 hrs: stored 1 day in absence of light; for Thickness Loss: 24 hrs versus 1 month storage
Experimental: 70 parts by weight of bis-acryloxymethyl-tricyclo-[5.2.1.0.^2,6 ]-decane and
30 parts by weight of 2,2-bis-4-(3-methacryloxy-2-hydroxypropoxy)-phenylpropane (Bis-GMA)
are stirred while carefully heated until a clear solution I is formed.
The solution I is cooled to room temperature and 0.5% by weight of a photoinitiator (selected from those listed in Table 2) are added with stirring until the solution is clear.
The resulting solution is introduced into a cylinder (5 mm diameter, 8 mm length; for greater thicknesses 20 mm). Thereafter the solution is exposed to radiation from a commercial dental radiator (Elipar-Visio/Espe) for 20 seconds, the polymer is removed from the cylinder, the soft or gel-like, incompletely polymerized components are removed with a plastic spatula, and the attained thickness of the layer is measured. To this end the solutions are stored prior to polymerization for 1 day and 1 month, respectively, in the absence of light.

[2] = UV/visible extinction at 400 nm; type: physicochemical; conditions: for εmol at 400 nm: Table 1; for Extinction at 400 nm: Table 2
[3] = Temperature course during polymerization of tooth filling composite; conditions: 3 mm height, 20 s exposure; for Time for reaching Tmax: cylinder 3 mm diameter; for Tmax: middle of cylinder 3 mm diameter
Source text: (§1) Tooth filling composites prepared according to Example 3 with the use of the photoinitiators listed in Table 3 are filled into cylinders (3 mm diameter, 3 mm height) in the middle of which the temperature can be measured during the polymerization. After 20 seconds of exposure to light from a commercial dental radiator (Elipar-Visio lamp/Espe) the structures are taken out and the soft layer is removed with toluene. From the weight difference the amount of uncured material in mg/cm^2 at the upper and lower surface of the cylinder is calculated. Moreover, the temperature course in time is followed by the thermosensor and a measuring instrument connected thereto.

[4] = Uncured soft layer at surface of tooth filling composite; conditions: 20 s exposure; for Soft Layer (amount of uncured material), upper surface: first of two values, upper surface of cylinder; for Soft Layer (amount of uncured material), lower surface: second of two values, lower surface of cylinder
Source text: as §1

SMILES: Cc1ccc(C)c(P(=O)(C(=O)c2c(Cl)cccc2Cl)C(=O)c2c(Cl)cccc2Cl)c1 [Bis-(2,6-dichlorobenzoyl)-2,5-dimethylphenylphosphine Oxide]
- Layer Thickness after 1 month [1]: 14.5 mm
- Layer Thickness after 24 hrs [1]: 15 mm
- Thickness Loss [1]: 3%
- εmol at 400 nm [2]: 580
- Extinction at 400 nm [2]: 580
- Time for reaching Tmax [3]: 16 s
- Tmax [3]: 43.7 °C
- Soft Layer (amount of uncured material), upper surface [4]: 1.0 mg/cm^2
- Soft Layer (amount of uncured material), lower surface [4]: 1.1 mg/cm^2

SMILES: CCCCCCCCCCP(=O)(C(=O)c1c(Cl)cccc1Cl)C(=O)c1c(Cl)cccc1Cl [bis-(2,6-dichlorobenzoyl)decylphosphine oxide]
- εmol at 400 nm [2]: 470

SMILES: O=C(c1c(Cl)cccc1Cl)P(=O)(C(=O)c1c(Cl)cccc1Cl)c1ccc(-c2ccccc2)cc1 [bis-(2,6-dichlorobenzoyl)-4-biphenylylphosphine oxide]
- εmol at 400 nm [2]: 800

SMILES: Cc1cc(C)c(C(=O)P(=O)(c2ccccc2)c2ccccc2)c(C)c1 [2,4,6-Trimethylbenzoyldiphenylphosphine oxide, reference compound]
- Time for reaching Tmax [3]: 18 s
- Tmax [3]: 39.8 °C
- Soft Layer (amount of uncured material), upper surface [4]: 1.8 mg/cm^2
- Soft Layer (amount of uncured material), lower surface [4]: 2.0 mg/cm^2

SMILES: O=C(c1c(Cl)cccc1Cl)P(=O)(c1ccccc1)c1ccccc1 [2,6-Dichlorobenzoyl-diphenylphosphine oxide, reference compound]
- Layer Thickness after 1 month [1]: 6.5 mm
- Layer Thickness after 24 hrs [1]: 7 mm
- Thickness Loss [1]: 7%
- Extinction at 400 nm [2]: 190

SMILES: CCCCCCCCc1ccc(P(=O)(C(=O)c2c(Cl)cccc2Cl)C(=O)c2c(Cl)cccc2Cl)cc1 [bis-(2,6-dichlorobenzoyl)-4-octylphenylphosphine oxide]
- εmol at 400 nm [2]: 620

SMILES: CCOc1ccc(P(=O)(C(=O)c2c(OC)ccc3ccccc23)C(=O)c2c(OC)ccc3ccccc23)cc1 [bis-(2-methoxy-1-naphthoyl)-4-ethoxyphenylphosphine oxide]
- εmol at 400 nm [2]: 2700

SMILES: Cc1ccc2ccccc2c1C(=O)P(=O)(C(=O)c1c(C)ccc2ccccc12)c1ccc(-c2ccccc2)cc1 [bis-(2-methyl-1-naphthoyl)-4-biphenylylphosphine oxide]
- εmol at 400 nm [2]: 1680

SMILES: COc1c(Cl)c(C(=O)P(=O)(C(=O)c2c(Cl)c(OC)c(OC)c(OC)c2Cl)c2cc(C)ccc2C)c(Cl)c(OC)c1OC [bis-(2,6-dichloro-3,4,5-trimethoxybenzoyl)-2,5-dimethylphenylphosphine oxide]
- εmol at 400 nm [2]: 640

SMILES: CCOc1ccc(P(=O)(C(=O)c2c(Cl)cccc2Cl)C(=O)c2c(Cl)cccc2Cl)cc1 [bis-(2,6-dichlorobenzoyl)-4-ethoxyphenylphosphine oxide]
- εmol at 400 nm [2]: 690

SMILES: Cc1ccc2ccccc2c1C(=O)P(=O)(C(=O)c1c(C)ccc2ccccc12)c1ccccc1 [bis-(2-methyl-1-naphthoyl)phenylphosphine oxide]
- εmol at 400 nm [2]: 1040

SMILES: COc1cccc(OC)c1C(=O)P(=O)(C(=O)c1c(OC)cccc1OC)c1cc(C)ccc1C [bis-(2,6-dimethoxybenzoyl)-2,5-dimethylphenylphosphine oxide]
- εmol at 400 nm [2]: 505

SMILES: Cc1ccc(C)c(P(=O)(C(=O)c2c(Cl)cccc2Cl)c2cc(C)ccc2C)c1 [2,6-Dichlorobenzoyl-bis-(2,5-dimethylphenyl)phosphine oxide, reference compound]
- Layer Thickness after 1 month [1]: 4.1 mm
- Layer Thickness after 24 hrs [1]: 5.1 mm
- Thickness Loss [1]: 20%
- Extinction at 400 nm [2]: 440

SMILES: COc1ccc2ccccc2c1C(=O)P(=O)(C(=O)c1c(OC)ccc2ccccc12)c1cc(C)ccc1C [Bis-(2-methoxy-1-naphthoyl-2,5-dimethylphenylphosphineoxide]
- εmol at 400 nm [2]: 2550

SMILES: O=C(c1c(Cl)cccc1Cl)P(=O)(C(=O)c1c(Cl)cccc1Cl)c1ccccc1 [bis-(2,6-dichlorobenzoyl)phenylphosphine oxide]
- Layer Thickness after 1 month [1]: 14.5 mm
- Layer Thickness after 24 hrs [1]: 15 mm
- Thickness Loss [1]: 3%
- εmol at 400 nm [2]: 607
- Extinction at 400 nm [2]: 607

SMILES: COc1cccc(OC)c1C(=O)P(=O)(C(=O)c1c(OC)cccc1OC)c1ccccc1 [bis-(2,6-dimethoxybenzoyl)phenylphosphine oxide]
- εmol at 400 nm [2]: 550
